Laboratory results published in patent US20260226402A1, “IMPROVED MICROBIAL GROWTH MEDIA” (Becton, Dickinson and Company, priority 2023, published 2026).

How the values were obtained:
[1] = test system: yeast and other microorganisms
Protocol: (§1) TTD testing was performed using 28 organisms with a target CFU of 10-100 in blood volumes of 0 or 0.5 mL, organism dependent, 3 mL, and 10 mL. The organisms tested are illustrated in FIG. 20. Four different concentrations of iron provided as ferric ammonium citrate (0 g/L, 0.01 g/L, 0.035 g/L, and 0.06 g/L) in the media otherwise as described in Example 1, and three different concentrations of oxygen (47%, 54%, and 60%) were tested. FIG. 21 illustrates the combination of conditions tested. The testing was run in replicates of three. Prior to the day of testing, the bottles were racked and labeled, and the organisms were sub-cultured accordingly. Each organism to be tested was grown overnight on an appropriate plated medium. Each organism was carefully checked for purity. […] The organism is then re-cultured. 0.1 mL of the final organism dilution was dispensed and spread on the appropriate agar for plate counts. Using aseptic technique, each bottle containing 30 ml of microbial growth media was amended with 0, 0.5, 3, or 10 mL of bagged human blood using the appropriate syringe and needle. Paired sets were inoculated with blood from the same donor unit at the same time. The bottles were then inoculated with 0.1 mL of the appropriate organism. After inoculation, the bottles were loaded onto a BACTEC FX instrument using a standard protocol length of 120 hours. Paired bottles were entered into the FX at the same time in adjacent positions. […] The data from each experiment was organized for statistical testing via a general linear model analysis of variance (ANOVA). Blood volumes of 0 or 0.5, 3, and 10 mL were recoded as 0, 3, and 10 mL to help balance the design. Additional models were assessed holding the blood volume constant. FIG. 56 illustrates the results of the ANOVA analyzing the effects of the tested conditions on TTD. FIG. 57 illustrates the results of the ANOVA parameter estimates and prediction equation. There was an expectation that only the yeast category would show a significant effect with the iron addition. Other categories were monitored to ensure no adverse effects.

Candida albicans = experiment: TTD testing with varied iron and O2 (Example 2); assay type: cell-based
Protocol: as §1

Candida glabrata = experiment: TTD testing with varied iron and O2 (Example 2); assay type: cell-based
Protocol: as §1

[2] = iron 0, 0.01, 0.035, 0.06 g/L tested

Row | Molecule | optimal gaseous headspace O2 concentration for TTD [1] | effect on TTD of increasing oxygen concentration in headspace gas ([1]; from 47% to 60% O2) | optimal gaseous headspace O2 concentration for TTD (Candida albicans; 47%, 54%, 60% O2 tested) | effect on TTD of increasing oxygen concentration in headspace gas (Candida albicans; from 47% to 60% O2) | optimal gaseous headspace O2 concentration for TTD (Candida glabrata; 47%, 54%, 60% O2 tested) | effect on TTD of increasing oxygen concentration in headspace gas (Candida glabrata; from 47% to 60% O2) | optimal iron concentration for TTD [1, 2] | effect on TTD of increasing iron concentration in the media ([1]; iron from 0 to 0.06 g/L, blood 0/0.5, 3, 10 mL) | effect of iron on TTD, ANOVA result ([1]; yeast category, general linear model ANOVA) | optimal iron concentration for TTD (Candida albicans; [2]) | effect on TTD of increasing iron concentration in the media (Candida albicans; iron from 0 to 0.06 g/L) | optimal iron concentration for TTD (Candida glabrata; [2]) | effect on TTD of increasing iron concentration in the media (Candida glabrata; iron from 0 to 0.06 g/L)
1 | O=O [oxygen] | about 54% | decreased the TTD | about 54% | decreased the TTD | about 54% | decreased the TTD | – | – | – | – | – | – | –
2 | ferric ammonium citrate [iron] | – | – | – | – | – | – | about 0.035 g/L | decreased the TTD | lowers the TTD of yeasts | about 0.035 g/L | decreased the TTD | about 0.035 g/L | decreased the TTD
